Data: ChEMBL document CHEMBL5291721, “A preclinical secondary pharmacology resource illuminates target-adverse drug reaction associations of marketed drugs” (Nat Commun, 2023)

What was measured:
[1] = target: Sodium-dependent dopamine transporter (Homo sapiens, UniProt Q01959)
Cannabinoid receptor 1 = Cannabinoid receptor 1 (Homo sapiens, UniProt P21554)
Estrogen receptor = target: T1, Estrogen receptor (Homo sapiens, UniProt P03372)
T1 sequence (P03372 whole entry): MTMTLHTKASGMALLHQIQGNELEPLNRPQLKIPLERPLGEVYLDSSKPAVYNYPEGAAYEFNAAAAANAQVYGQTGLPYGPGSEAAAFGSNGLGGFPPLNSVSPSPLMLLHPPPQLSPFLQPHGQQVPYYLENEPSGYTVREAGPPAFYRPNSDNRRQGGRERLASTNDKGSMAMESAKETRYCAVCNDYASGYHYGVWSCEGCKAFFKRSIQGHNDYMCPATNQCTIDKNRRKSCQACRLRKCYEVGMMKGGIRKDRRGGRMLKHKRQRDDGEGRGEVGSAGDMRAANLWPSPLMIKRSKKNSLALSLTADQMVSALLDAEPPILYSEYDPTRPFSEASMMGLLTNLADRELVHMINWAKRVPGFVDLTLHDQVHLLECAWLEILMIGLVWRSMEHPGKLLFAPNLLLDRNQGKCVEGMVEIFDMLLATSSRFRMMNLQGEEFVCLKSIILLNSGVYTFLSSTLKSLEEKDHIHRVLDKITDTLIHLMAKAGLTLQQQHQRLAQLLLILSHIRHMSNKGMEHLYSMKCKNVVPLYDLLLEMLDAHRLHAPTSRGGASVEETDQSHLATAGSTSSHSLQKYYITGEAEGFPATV

[2] = target: Neuronal acetylcholine receptor subunit alpha-4 (Homo sapiens, UniProt P43681)
Chain of Neuronal acetylcholine receptor subunit alpha-4 (P43681 whole entry): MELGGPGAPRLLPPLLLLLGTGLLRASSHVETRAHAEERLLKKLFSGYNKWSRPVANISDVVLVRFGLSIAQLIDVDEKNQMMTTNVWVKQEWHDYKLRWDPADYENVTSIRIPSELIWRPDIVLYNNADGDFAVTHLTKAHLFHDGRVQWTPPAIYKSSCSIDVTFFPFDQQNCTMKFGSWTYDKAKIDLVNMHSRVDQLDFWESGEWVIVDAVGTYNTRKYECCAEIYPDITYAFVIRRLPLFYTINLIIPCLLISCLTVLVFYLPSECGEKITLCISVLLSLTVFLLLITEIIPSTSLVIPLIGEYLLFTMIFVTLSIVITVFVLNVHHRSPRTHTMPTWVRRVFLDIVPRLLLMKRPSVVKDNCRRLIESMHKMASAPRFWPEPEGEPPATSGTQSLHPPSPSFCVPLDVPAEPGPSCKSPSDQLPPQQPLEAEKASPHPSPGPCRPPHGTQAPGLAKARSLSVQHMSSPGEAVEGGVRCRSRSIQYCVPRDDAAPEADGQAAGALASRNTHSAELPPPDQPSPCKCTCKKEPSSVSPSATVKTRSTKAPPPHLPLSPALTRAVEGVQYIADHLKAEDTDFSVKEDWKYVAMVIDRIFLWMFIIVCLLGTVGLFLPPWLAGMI

[3] = target: T2, 5-hydroxytryptamine receptor 2C (Homo sapiens, UniProt P28335)
T2 sequence (P28335 whole entry): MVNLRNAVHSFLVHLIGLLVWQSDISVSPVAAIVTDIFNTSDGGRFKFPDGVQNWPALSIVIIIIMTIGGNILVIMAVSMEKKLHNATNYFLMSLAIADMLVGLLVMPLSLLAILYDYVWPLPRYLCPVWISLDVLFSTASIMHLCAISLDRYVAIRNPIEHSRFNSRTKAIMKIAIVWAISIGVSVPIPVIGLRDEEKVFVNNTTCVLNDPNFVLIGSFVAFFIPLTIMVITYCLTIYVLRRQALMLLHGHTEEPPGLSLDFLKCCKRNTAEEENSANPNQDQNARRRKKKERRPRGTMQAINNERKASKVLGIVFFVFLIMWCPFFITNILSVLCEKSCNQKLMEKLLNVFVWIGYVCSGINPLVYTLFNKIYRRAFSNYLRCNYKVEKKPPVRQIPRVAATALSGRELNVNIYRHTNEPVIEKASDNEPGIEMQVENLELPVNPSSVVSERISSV

[4] = target: Gamma-aminobutyric acid receptor subunit alpha-1 (Rattus norvegicus, UniProt P62813)
Chain of Gamma-aminobutyric acid receptor subunit alpha-1 (P62813 whole entry): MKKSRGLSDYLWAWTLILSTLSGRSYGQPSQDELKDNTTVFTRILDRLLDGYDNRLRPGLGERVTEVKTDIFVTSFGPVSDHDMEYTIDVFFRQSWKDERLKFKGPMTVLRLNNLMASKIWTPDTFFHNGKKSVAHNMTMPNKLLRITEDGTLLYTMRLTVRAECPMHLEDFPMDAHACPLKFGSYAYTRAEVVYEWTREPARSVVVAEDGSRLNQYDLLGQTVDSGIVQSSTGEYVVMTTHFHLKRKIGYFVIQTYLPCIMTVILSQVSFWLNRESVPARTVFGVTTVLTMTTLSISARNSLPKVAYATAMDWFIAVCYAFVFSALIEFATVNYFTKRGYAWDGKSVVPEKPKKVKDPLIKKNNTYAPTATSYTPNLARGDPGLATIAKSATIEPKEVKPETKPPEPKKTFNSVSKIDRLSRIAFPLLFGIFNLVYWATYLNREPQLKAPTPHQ

Melanocortin receptor 4 = Melanocortin receptor 4 (Homo sapiens, UniProt P32245)
Chain of Melanocortin receptor 4 (P32245 whole entry): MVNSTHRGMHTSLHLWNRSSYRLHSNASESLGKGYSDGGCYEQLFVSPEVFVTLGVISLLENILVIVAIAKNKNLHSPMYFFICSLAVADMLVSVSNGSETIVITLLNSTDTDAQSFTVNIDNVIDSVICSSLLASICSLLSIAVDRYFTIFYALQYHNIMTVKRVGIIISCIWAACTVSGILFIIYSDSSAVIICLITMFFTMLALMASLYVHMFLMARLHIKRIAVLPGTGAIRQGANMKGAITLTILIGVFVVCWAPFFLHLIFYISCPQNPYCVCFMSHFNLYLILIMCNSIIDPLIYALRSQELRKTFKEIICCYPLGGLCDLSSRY

[5] = target: Growth hormone secretagogue receptor type 1 (Homo sapiens, UniProt Q92847)
Chain of Growth hormone secretagogue receptor type 1 (Q92847 whole entry): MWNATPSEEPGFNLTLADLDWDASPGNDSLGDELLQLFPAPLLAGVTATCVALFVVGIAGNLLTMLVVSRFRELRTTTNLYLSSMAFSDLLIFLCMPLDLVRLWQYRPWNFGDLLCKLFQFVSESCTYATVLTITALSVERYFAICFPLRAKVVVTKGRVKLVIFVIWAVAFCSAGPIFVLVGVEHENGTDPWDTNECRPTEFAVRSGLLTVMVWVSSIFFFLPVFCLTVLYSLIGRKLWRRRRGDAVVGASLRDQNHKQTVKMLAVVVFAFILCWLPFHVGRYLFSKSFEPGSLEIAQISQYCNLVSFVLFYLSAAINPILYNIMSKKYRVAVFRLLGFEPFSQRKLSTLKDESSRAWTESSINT

[6] = target: Beta-1 adrenergic receptor (Homo sapiens, UniProt P08588); assay type: functional
Chain of Beta-1 adrenergic receptor (P08588 whole entry): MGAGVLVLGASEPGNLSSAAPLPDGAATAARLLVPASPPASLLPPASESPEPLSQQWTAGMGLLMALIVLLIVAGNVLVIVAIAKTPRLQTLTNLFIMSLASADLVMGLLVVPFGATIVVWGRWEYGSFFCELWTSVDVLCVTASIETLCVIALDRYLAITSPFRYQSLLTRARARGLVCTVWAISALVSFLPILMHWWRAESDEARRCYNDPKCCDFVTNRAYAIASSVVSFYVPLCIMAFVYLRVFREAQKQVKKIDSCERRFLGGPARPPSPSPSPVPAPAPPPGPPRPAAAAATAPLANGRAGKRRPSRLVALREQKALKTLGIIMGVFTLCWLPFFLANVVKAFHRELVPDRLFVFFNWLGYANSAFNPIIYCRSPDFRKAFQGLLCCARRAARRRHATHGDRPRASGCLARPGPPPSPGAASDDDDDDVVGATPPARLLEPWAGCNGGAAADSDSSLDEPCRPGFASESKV

[7] = target: T3, Alpha-2A adrenergic receptor (Homo sapiens, UniProt P08913); assay type: functional, cell-based
T3 sequence (P08913 whole entry): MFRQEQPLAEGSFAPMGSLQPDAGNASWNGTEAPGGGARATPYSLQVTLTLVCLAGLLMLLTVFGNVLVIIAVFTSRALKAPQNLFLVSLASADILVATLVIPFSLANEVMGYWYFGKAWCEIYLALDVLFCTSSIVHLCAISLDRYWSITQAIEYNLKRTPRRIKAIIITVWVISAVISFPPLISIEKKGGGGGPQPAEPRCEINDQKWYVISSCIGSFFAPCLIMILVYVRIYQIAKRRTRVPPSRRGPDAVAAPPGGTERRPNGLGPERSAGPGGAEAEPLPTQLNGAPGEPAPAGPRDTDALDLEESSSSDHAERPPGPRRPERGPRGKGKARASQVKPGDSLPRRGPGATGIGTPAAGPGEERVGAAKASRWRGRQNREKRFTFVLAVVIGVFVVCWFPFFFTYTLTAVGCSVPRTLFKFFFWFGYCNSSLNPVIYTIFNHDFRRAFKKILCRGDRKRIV

[8] = target: T4, Prostaglandin G/H synthase 1 (Rattus norvegicus, UniProt Q63921); assay type: functional
T4 sequence (Q63921 whole entry): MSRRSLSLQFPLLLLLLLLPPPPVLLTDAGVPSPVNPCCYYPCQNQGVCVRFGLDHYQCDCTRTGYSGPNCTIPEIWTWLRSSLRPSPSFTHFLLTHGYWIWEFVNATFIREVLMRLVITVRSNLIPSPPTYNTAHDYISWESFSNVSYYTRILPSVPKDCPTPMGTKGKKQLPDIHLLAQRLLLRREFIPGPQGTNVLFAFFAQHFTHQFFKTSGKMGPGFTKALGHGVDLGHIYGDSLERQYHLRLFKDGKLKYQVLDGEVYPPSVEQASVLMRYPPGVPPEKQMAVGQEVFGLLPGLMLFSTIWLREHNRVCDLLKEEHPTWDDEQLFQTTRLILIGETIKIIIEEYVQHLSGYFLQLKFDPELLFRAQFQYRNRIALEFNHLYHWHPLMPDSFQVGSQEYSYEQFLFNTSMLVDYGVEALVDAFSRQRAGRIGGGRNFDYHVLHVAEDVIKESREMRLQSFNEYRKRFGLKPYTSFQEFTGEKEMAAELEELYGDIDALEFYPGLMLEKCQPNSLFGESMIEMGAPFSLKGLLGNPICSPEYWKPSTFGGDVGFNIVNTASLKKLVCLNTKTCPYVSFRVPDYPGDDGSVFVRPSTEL

Melanocortin receptor 3 = Melanocortin receptor 3 (Homo sapiens, UniProt P41968)
Chain of Melanocortin receptor 3 (P41968 whole entry): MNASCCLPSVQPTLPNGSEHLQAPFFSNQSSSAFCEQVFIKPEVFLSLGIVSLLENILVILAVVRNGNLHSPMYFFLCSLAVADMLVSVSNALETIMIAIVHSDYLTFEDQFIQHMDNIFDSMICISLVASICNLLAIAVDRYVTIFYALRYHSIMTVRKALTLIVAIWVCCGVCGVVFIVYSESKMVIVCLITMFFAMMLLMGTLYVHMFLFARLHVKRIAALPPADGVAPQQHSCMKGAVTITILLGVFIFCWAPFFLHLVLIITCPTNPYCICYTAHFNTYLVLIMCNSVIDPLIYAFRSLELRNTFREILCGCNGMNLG

D(3) dopamine receptor = D(3) dopamine receptor (Homo sapiens, UniProt P35462)
Chain of D(3) dopamine receptor (P35462 whole entry): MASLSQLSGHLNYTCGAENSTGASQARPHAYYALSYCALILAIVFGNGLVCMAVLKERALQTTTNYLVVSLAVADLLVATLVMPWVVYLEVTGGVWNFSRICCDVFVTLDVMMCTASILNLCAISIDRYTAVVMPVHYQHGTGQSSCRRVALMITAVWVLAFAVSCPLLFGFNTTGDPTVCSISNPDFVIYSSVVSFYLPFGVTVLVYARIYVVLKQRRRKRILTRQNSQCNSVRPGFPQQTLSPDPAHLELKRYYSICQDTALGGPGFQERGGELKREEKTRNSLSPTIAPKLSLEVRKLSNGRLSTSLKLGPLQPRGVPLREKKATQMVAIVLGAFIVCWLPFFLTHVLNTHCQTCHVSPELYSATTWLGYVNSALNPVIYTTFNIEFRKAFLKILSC
Further: assay procedure not described here.

Chain of Sodium-dependent dopamine transporter (Q01959 whole entry): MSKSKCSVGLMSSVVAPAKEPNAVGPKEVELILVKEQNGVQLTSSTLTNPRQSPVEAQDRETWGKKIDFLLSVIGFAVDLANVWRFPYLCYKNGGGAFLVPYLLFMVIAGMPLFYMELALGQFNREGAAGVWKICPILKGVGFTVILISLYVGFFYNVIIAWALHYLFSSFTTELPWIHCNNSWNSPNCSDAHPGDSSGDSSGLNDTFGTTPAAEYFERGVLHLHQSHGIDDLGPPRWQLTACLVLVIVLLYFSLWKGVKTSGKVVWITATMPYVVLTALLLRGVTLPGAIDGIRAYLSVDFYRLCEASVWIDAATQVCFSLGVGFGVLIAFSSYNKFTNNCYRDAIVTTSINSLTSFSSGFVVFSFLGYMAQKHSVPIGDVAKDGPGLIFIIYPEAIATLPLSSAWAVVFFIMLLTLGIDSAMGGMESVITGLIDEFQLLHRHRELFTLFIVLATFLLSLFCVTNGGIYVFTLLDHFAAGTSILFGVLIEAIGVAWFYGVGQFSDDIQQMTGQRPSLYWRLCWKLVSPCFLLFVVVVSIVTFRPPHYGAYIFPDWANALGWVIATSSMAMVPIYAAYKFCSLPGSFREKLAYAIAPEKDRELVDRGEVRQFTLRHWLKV
Chain of Cannabinoid receptor 1 (P21554 whole entry): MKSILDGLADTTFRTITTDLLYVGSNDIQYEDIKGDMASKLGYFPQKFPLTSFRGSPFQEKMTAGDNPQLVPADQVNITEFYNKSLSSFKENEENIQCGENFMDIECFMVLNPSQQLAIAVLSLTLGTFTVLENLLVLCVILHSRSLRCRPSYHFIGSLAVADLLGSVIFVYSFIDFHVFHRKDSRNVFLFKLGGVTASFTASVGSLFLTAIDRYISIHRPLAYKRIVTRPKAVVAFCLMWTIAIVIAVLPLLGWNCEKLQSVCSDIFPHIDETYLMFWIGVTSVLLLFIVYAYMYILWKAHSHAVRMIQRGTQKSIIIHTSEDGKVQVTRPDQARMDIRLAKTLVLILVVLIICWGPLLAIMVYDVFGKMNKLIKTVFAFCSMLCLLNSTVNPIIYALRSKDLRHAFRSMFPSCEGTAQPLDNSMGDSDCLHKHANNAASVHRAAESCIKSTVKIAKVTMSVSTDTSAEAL

Structure (SMILES) | AC50 [1] | AC50 (Cannabinoid receptor 1) | AC50 (Estrogen receptor) | AC50 [2] | AC50 [3] | AC50 [4] | AC50 (Melanocortin receptor 4) | AC50 [5] | AC50 [6] | AC50 [7] | AC50 [8] | AC50 (Melanocortin receptor 3) | AC50 (D(3) dopamine receptor)
CN(C)Cc1nnc2n1-c1ccc(Cl)cc1C(c1ccccc1)=NC2 [ADINAZOLAM] | > 10 µM | > 10 µM | > 10 µM | > 10 µM | > 30 µM | > 10 µM | > 10 µM | > 10 µM | > 10 µM | > 10 µM | > 10 µM | > 10 µM | –
CCOC(=O)c1ccc(N)cc1 [BENZOCAINE] | > 10 µM | > 10 µM | – | > 10 µM | > 30 µM | > 10 µM | > 10 µM | > 10 µM | > 10 µM | > 10 µM | > 10 µM | > 10 µM | –
CC(C)(Oc1ccc(CCNC(=O)c2ccc(Cl)cc2)cc1)C(=O)O [BEZAFIBRATE] | > 10 µM | > 10 µM | > 10 µM | > 10 µM | > 30 µM | > 10 µM | > 10 µM | > 10 µM | > 10 µM | > 10 µM | > 10 µM | > 10 µM | –
CC(O)(CS(=O)(=O)c1ccc(F)cc1)C(=O)Nc1ccc(C#N)c(C(F)(F)F)c1 (stereo unspecified) [BICALUTAMIDE] | > 30 µM | > 10 µM | – | > 30 µM | > 30 µM | > 10 µM | > 30 µM | 2.2 µM | > 30 µM | > 10 µM | > 30 µM | > 30 µM | > 30 µM
CC(=O)O[C@]1(C(C)=O)CC[C@H]2[C@@H]3C=C(Cl)C4=CC(=O)[C@@H]5C[C@@H]5[C@]4(C)[C@H]3CC[C@@]21C [CYPROTERONE ACETATE] | > 30 µM | > 10 µM | – | > 10 µM | > 30 µM | > 10 µM | > 30 µM | > 30 µM | > 10 µM | – | > 30 µM | > 30 µM | > 30 µM
C/C=C(/C(=C/C)c1ccc(O)cc1)c1ccc(O)cc1 [DIENESTROL] | > 30 µM | > 10 µM | 0.0035 µM | > 10 µM | > 30 µM | > 10 µM | > 10 µM | > 10 µM | > 10 µM | > 10 µM | > 30 µM | > 10 µM | –
C[C@@H]1C[C@H]2[C@@H]3C[C@H](F)C4=CC(=O)C=C[C@]4(C)[C@@]3(F)[C@@H](O)C[C@]2(C)[C@@]1(OC(=O)c1ccco1)C(=O)SCF [FLUTICASONE FUROATE] | > 10 µM | 16.3 µM | – | > 10 µM | > 30 µM | > 30 µM | > 10 µM | > 10 µM | > 10 µM | > 10 µM | > 10 µM | > 10 µM | > 30 µM
COc1ccc([C@@H]2CC(=O)c3c(O)cc(O)cc3O2)cc1O [HESPERETIN] | > 10 µM | > 10 µM | > 10 µM | > 10 µM | > 30 µM | > 10 µM | > 10 µM | > 10 µM | > 10 µM | > 10 µM | 30.7 µM | > 10 µM | –
Cc1ccccc1N1C(=O)c2cc(S(N)(=O)=O)c(Cl)cc2NC1C (stereo unspecified) [METOLAZONE] | > 10 µM | > 10 µM | – | > 10 µM | > 30 µM | > 10 µM | > 10 µM | > 10 µM | > 10 µM | > 10 µM | > 10 µM | > 10 µM | –
C[C@]12CCC(=O)C[C@@H]1CC[C@@H]1[C@@H]2CC[C@]2(C)[C@@H](O)CC[C@@H]12 [STANOLONE] | > 30 µM | > 30 µM | – | > 30 µM | > 30 µM | > 30 µM | > 30 µM | > 30 µM | > 30 µM | > 30 µM | > 30 µM | > 30 µM | –
